Results: patent US8680052B1, “Methods of treating, reducing the incidence of, and/or preventing ischemic events” (The Medicines Company, priority 2013, dated 2014)
Like-named read-outs stand apart in the source and are kept apart here.

Test system: patients with acute coronary syndromes undergoing PCI
Settings: for IDR / MI / Mortality/MI/IDR / Mortality/Q-wave MI/IDR / Mortality/Q-wave MI/Stent thrombosis / Q-wave MI / Stent thrombosis / All-cause mortality: 30 days; for Angiographic complications (site reported): Abrupt vessel closure / Angiographic complications (site reported): Acute stent thrombosis / Angiographic complications (site reported): Need for urgent CABG / Angiographic complications (site reported): New thrombus or suspected thrombus / Angiographic complications (site reported): Threatened abrupt closure / Angiographic complications (site reported): Unsuccessful procedure: index PCI
Procedure: Patients were eligible for enrollment if they had stable angina, unstable angina, or non-ST-segment elevation (NSTE) MI with obstructive coronary artery disease and were scheduled to undergo PCI.
The infusion began within 30 minutes prior to PCI and continued for at least 2 hours or until the conclusion of the index procedure, whichever was longer. At the treating physician's discretion, the infusion could be continued for 4 hours.
All patients received aspirin 75-325 mg per local site standards. Adjunctive anticoagulants (unfractionated heparin, low molecular weight heparin, bivalirudin, or fondaparinux) and the procedural use of glycoprotein IIb/IIIa inhibitors were determined by the treating physician.
The primary efficacy endpoint was the 48-hour composite of all-cause mortality, MI, or ischemia-driven revascularization. Prespecified secondary efficacy endpoints included the composite of mortality or MI at 48 hours and 30 days; the composite of mortality, MI, or ischemia-driven revascularization at 30 days; the components of the composite endpoints at 48 hours and 30 days; stroke at 48 hours; abrupt closure, threatened abrupt closure, need for urgent coronary artery bypass grafting, or unsuccessful procedure during the index PCI; acute (24 hours) and 48 hours stent thrombosis; and all-cause mortality at 6 months and 1 year.
Rates of MI and ischemia-driven revascularization up to 30 days following the index procedure were assessed. Ischemia-driven revascularization was defined as symptoms of myocardial ischemia leading to urgent (within 24 hours of the last episode of ischemia) revascularization, which must have occurred after the index procedure concluded (i.e., guidewire removal). New electrocardiographic changes, acute pulmonary edema, ventricular arrhythmias, or hemodynamic instability could also constitute evidence of ischemia.
MI was defined by a new Q wave (duration >0.03 seconds) in two contiguous electrocardiographic leads or elevations in creatine kinase (CK) and CK-MB, including a rise of CK-MB≧3 times the local upper limit or normal and, when biomarkers were elevated prior to PCI, an additional 50% above baseline. One baseline troponin measurement was required for patients undergoing urgent PCI. Measurements of CK-MB were obtained at 2, 10, 17, and 24 hours post-PCI.
The primary efficacy analysis was to be determined in the modified intent-to-treat (mITT) population, defined as all randomized patients (excluding STEMI cohort) who received at least one dose of study drug and underwent the index PCI. The safety population consisted of all randomized patients who received any study drug. Patients in the safety analyses were assigned to a treatment arm based on treatment received, not as randomized.

## COC(=O)[C@H](c1ccccc1Cl)N1CCc2sccc2C1 [Clopidogrel, clopidogrel, reference compound]
ITT With STEMI
  IDR: 15 (3.0) no. (%)
  MI: 17 (3.4) no. (%)
  Mortality/MI/IDR: 41 (8.2) no. (%)
  Mortality/Q-wave MI/IDR: 31 (6.2) no. (%)
  Mortality/Q-wave MI/Stent thrombosis: 26 (5.2) no. (%)
  Q-wave MI: 0 (0.0) no. (%)
  Stent thrombosis: 10 (2.0) no. (%)
  Angiographic complications (site reported): Abrupt vessel closure: 3 (0.7)
  Angiographic complications (site reported): Acute stent thrombosis: 0 (0.0)
  Angiographic complications (site reported): Need for urgent CABG: 0 (0.0)
  Angiographic complications (site reported): New thrombus or suspected thrombus: 7 (1.5)
  Angiographic complications (site reported): Threatened abrupt closure: 2 (0.4)
  Angiographic complications (site reported): Unsuccessful procedure: 11 (2.4)
ITT Without STEMI
  All-cause mortality: 31 (0.8) no. (%)
  IDR: 54 (1.4) no. (%)
  MI: 276 (7.1) no. (%)
  Mortality/MI/IDR: 332 (8.6) no. (%)
  Mortality/Q-wave MI/IDR: 88 (2.3) no. (%)
  Mortality/Q-wave MI/Stent thrombosis: 56 (1.4) no. (%)
  Q-wave MI: 15 (0.4) no. (%)
  Stent thrombosis: 20 (0.5) no. (%)
  Angiographic complications (site reported): Abrupt vessel closure: 19 (0.5)
  Angiographic complications (site reported): Acute stent thrombosis: 5 (0.1)
  Angiographic complications (site reported): Need for urgent CABG: 7 (0.2)
  Angiographic complications (site reported): New thrombus or suspected thrombus: 16 (0.4)
  Angiographic complications (site reported): Threatened abrupt closure: 10 (0.3)
  Angiographic complications (site reported): Unsuccessful procedure: 92 (2.4)
MITT
  All-cause mortality: 38 (0.9) no. (%)
  IDR: 66 (1.5) no. (%)
  MI: 292 (6.8) no. (%)
  Mortality/MI/IDR: 360 (8.4) no. (%)
  Mortality/Q-wave MI/IDR: 107 (2.5) no. (%)
  Mortality/Q-wave MI/Stent thrombosis: 73 (1.7) no. (%)
  Q-wave MI: 15 (0.4) no. (%)
  Stent thrombosis: 30 (0.7) no. (%)
  Angiographic complications (site reported): Abrupt vessel closure: 22 (0.5)
  Angiographic complications (site reported): Acute stent thrombosis: 5 (0.1)
  Angiographic complications (site reported): Need for urgent CABG: 6 (0.1)
  Angiographic complications (site reported): New thrombus or suspected thrombus: 22 (0.5)
  Angiographic complications (site reported): Threatened abrupt closure: 12 (0.3)
  Angiographic complications (site reported): Unsuccessful procedure: 103 (2.4)
MITT With STEMI
  All-cause mortality: 11 (2.5) no. (%)
  IDR: 14 (3.2) no. (%)
  MI: 16 (3.6) no. (%)
  Mortality/MI/IDR: 34 (7.7) no. (%)
  Mortality/Q-wave MI/IDR: 25 (5.6) no. (%)
  Mortality/Q-wave MI/Stent thrombosis: 21 (4.7) no. (%)
  Q-wave MI: 0 (0.0) no. (%)
  Stent thrombosis: 10 (2.3) no. (%)
MITT Without STEMI
  All-cause mortality: 27 (0.7) no. (%)
  IDR: 52 (1.4) no. (%)
  MI: 276 (7.2) no. (%)
  Mortality/MI/IDR: 326 (8.5) no. (%)
  Mortality/Q-wave MI/IDR: 82 (2.1) no. (%)
  Mortality/Q-wave MI/Stent thrombosis: 52 (1.4) no. (%)
  Q-wave MI: 15 (0.4) no. (%)
  Stent thrombosis: 20 (0.5) no. (%)
Safety population
  All-cause mortality: 41 (0.9) no. (%)
  IDR: 67 (1.6) no. (%)
  MI: 293 (6.8) no. (%)
  Mortality/MI/IDR: 365 (8.5) no. (%)
  Mortality/Q-wave MI/IDR: 111 (2.6) no. (%)
  Mortality/Q-wave MI/Stent thrombosis: 76 (1.8) no. (%)
  Q-wave MI: 15 (0.3) no. (%)
  Stent thrombosis: 30 (0.7) no. (%)
  Angiographic complications (site reported): Abrupt vessel closure: 22 (0.5)
  Angiographic complications (site reported): Acute stent thrombosis: 5 (0.1)
  Angiographic complications (site reported): Need for urgent CABG: 6 (0.1)
  Angiographic complications (site reported): New thrombus or suspected thrombus: 22 (0.5)
  Angiographic complications (site reported): Threatened abrupt closure: 12 (0.3)
  Angiographic complications (site reported): Unsuccessful procedure: 103 (2.4)
ITT
  Angiographic complications (site reported): Abrupt vessel closure: 22 (0.5)
  Angiographic complications (site reported): Acute stent thrombosis: 5 (0.1)
  Angiographic complications (site reported): Need for urgent CABG: 7 (0.2)
  Angiographic complications (site reported): New thrombus or suspected thrombus: 23 (0.5)
  Angiographic complications (site reported): Threatened abrupt closure: 12 (0.3)
  Angiographic complications (site reported): Unsuccessful procedure: 103 (2.4)
MITT NSTEMI
  Angiographic complications (site reported): Abrupt vessel closure: 19 (0.5)
  Angiographic complications (site reported): Acute stent thrombosis: 5 (0.1)
  Angiographic complications (site reported): Need for urgent CABG: 6 (0.2)
  Angiographic complications (site reported): New thrombus or suspected thrombus: 16 (0.4)
  Angiographic complications (site reported): Threatened abrupt closure: 10 (0.3)
  Angiographic complications (site reported): Unsuccessful procedure: 92 (2.4)
